Data on 15 compounds can be found in ChEMBL document CHEMBL1134040, “Allyl and propargyl substituted penam sulfones as versatile intermediates toward the syntheses of new beta-lactamase inhibitors” (Bioorg Med Chem Lett, 2001).

The target of one assay is Beta-lactamase (Escherichia coli K-12, UniProt P00811). Kind of assay: In vitro inhibitory concentration against AmpC enzyme.
In assay [1] the target is Metallo-beta-lactamase type 2 (Bacteroides fragilis, UniProt P25910). Kind of assay: In vitro inhibitory concentration against CCRA enzyme.
The next assay deals with Beta-lactamase TEM (Escherichia coli, UniProt P62593). The assay can be described thus: In vitro inhibitory concentration against TEM-1 enzyme.
The subject of assay [2] is Escherichia coli. The assay can be described thus: In vitro antibacterial activity against TEM-1 producing Escherichia coli (GC2206). Type of assay: functional.
For assay [3], the system named is Escherichia coli. Kind of assay: In vitro antibacterial activity against AmpC producing Escherichia coli (GC2894). Type of assay: functional.

In brackets after ≈: the same amount, converted by molar mass. Some results are limits rather than exact numbers.

For orientation: IC50 means the midpoint of a concentration-inhibition curve. A higher IC50 goes with a need for much substance. Usually MIC stands for the lowest concentration found to suppress growth.

Metallo-beta-lactamase type 2, sequence (P25910 whole entry): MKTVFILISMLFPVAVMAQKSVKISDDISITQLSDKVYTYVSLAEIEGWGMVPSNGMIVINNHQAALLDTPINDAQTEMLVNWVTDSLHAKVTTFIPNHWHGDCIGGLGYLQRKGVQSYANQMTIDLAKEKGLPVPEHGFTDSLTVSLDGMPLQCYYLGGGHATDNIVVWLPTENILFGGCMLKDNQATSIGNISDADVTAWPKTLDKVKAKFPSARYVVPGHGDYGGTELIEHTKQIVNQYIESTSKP
Beta-lactamase TEM, sequence (P62593 whole entry): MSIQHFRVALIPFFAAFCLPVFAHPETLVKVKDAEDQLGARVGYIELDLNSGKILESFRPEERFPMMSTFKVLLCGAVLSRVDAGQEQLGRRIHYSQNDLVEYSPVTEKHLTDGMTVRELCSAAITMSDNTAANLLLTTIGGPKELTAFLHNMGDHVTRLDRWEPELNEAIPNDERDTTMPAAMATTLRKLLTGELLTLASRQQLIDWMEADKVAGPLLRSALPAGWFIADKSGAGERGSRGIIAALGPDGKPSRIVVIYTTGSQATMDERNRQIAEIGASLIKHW
Beta-lactamase, sequence (P00811 whole entry): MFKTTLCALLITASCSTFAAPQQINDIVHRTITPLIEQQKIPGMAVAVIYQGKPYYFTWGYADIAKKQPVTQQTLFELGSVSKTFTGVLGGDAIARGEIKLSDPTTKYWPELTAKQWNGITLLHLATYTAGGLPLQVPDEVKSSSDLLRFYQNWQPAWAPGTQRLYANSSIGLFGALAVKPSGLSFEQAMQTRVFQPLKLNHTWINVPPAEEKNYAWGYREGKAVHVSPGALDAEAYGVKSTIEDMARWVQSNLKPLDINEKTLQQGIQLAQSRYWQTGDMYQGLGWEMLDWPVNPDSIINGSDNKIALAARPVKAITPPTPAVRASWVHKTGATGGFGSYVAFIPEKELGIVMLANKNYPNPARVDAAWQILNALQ

On to `CC1(C)[C@H](C(=O)O)N2C(=O)[C@@H](Cc3cn(CC(N)Cc4ccc(O)cc4)nn3)[C@H]2S1(=O)=O` (some centres undefined), for which the figures for the 50% inhibitory concentration (IC50) (against Beta-lactamase; in assay [1]; on Beta-lactamase TEM) were 6.6 µM, 24 µM and 15 µM, respectively.
Regarding `CC1(C)[C@H](C(=O)O)N2C(=O)C(C/C=C/C#N)[C@@H]2S1(=O)=O` (some centres undefined), the IC50 was greater than 100 µM against Beta-lactamase, 3.1 µM in assay [1] and 24 µM at Beta-lactamase TEM.
For the compound `CON(C)C(=O)/C=C/CC1C(=O)N2[C@@H](C(=O)O)C(C)(C)S(=O)(=O)[C@H]12` (some centres undefined), the IC50 was 17 µM at Beta-lactamase and greater than 100 µM in assay [1].
As to `CC1(C)[C@H](C(=O)O)N2C(=O)[C@@H](Cc3cn(-c4ccc(N)cc4)nn3)[C@H]2S1(=O)=O`, the IC50 is 1.4 µM against Beta-lactamase, 1.8 µM in assay [1] and 0.6 µM at Beta-lactamase TEM. Also, the MIC in the assay on Escherichia coli [2] amounted to 32 µg/mL (≈ 78.9 µM); against Escherichia coli [3] it was 64 µg/mL (≈ 158 µM).
With `CC1(C)[C@H](C(=O)O)N2C(=O)[C@@H](Cc3cn(-c4ccccc4)nn3)[C@H]2S1(=O)=O`, the values for the IC50 (at Beta-lactamase; in assay [1]; on Beta-lactamase TEM) were 3.4 µM, greater than 100 µM and 1 µM, respectively.
Turning to `COC(=O)/C=C/CC1C(=O)N2[C@@H](C(=O)O)C(C)(C)S(=O)(=O)[C@@H]12` (some centres undefined), the IC50 against Beta-lactamase came to 64 µM; in assay [1], 1.4 µM; against Beta-lactamase TEM, 2.8 µM.
Turning to `CC1(C)[C@H](C(=O)O)N2C(=O)[C@@H](Cc3cn(CC4CCCN4)nn3)[C@H]2S1(=O)=O` (some centres undefined), the IC50 at Beta-lactamase was 5.2 µM; in assay [1], 22 µM; at Beta-lactamase TEM, 7.9 µM.
As for `CC1(C)[C@H](C(=O)O)N2C(=O)[C@@H](Cc3cn(-c4ccc(O)cc4)nn3)[C@H]2S1(=O)=O`, the figures for the IC50 (on Beta-lactamase; in assay [1]; against Beta-lactamase TEM) were 2.3 µM, 2.1 µM and 0.7 µM, respectively.
For `CC1(C)[C@H](C(=O)O)N2C(=O)C(C/C=C/C=O)[C@H]2S1(=O)=O` (some centres undefined), the figures for the IC50 (on Beta-lactamase; in assay [1]; against Beta-lactamase TEM) were 17 µM, greater than 100 µM and 12 µM, respectively.
Regarding `CC1(C)[C@H](C(=O)O)N2C(=O)[C@@H](Cc3cn(-c4ccc(F)cc4)nn3)[C@H]2S1(=O)=O`, the IC50 amounted to 3 µM against Beta-lactamase, 4.1 µM in assay [1] and 1.6 µM against Beta-lactamase TEM.
As for `CC(=O)/C=C/CC1C(=O)N2[C@@H](C(=O)O)C(C)(C)S(=O)(=O)[C@H]12` (some centres undefined), the IC50 was 100 µM on Beta-lactamase, 71 µM in assay [1] and 8.4 µM at Beta-lactamase TEM.
Consider `COC(=O)/C=C/CC1C(=O)N2[C@@H](C(=O)O)C(C)(C)S(=O)(=O)[C@H]12` (some centres undefined), for which the IC50 at Beta-lactamase was 29 µM; in assay [1] it was greater than 100 µM; against Beta-lactamase TEM, 8.6 µM.
For the compound `CC(=O)/C=C/CC1C(=O)N2[C@@H](C(=O)O)C(C)(C)S(=O)(=O)[C@@H]12` (some centres undefined), the values for the IC50 (against Beta-lactamase; in assay [1]; against Beta-lactamase TEM) were 40 µM, 3 µM and 6.5 µM, respectively.
For `CCN1CCN(C(=O)N[C@@H](C(=O)N[C@@H]2C(=O)N3[C@@H]2SC(C)(C)[C@@H]3C(=O)O)c2ccccc2)C(=O)C1=O` [PIPERACILLIN], the minimum inhibitory concentration (MIC) against Escherichia coli [2] and with Escherichia coli [3] was greater than 64 µg/mL throughout.
Take `C[C@]1(Cn2ccnn2)[C@H](C(=O)O)N2C(=O)C[C@H]2S1(=O)=O` [TAZOBACTAM]: the results for the MIC against Escherichia coli [2] and against Escherichia coli [3] were 2 µg/mL (≈ 6.66 µM) and 16 µg/mL (≈ 53.3 µM), respectively.
